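How tested: cells in 96-well plates exposed to compound for 48 hours at five concentrations. At the GI50, growth is halved.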 The source made the active and inactive calls. Rule as the data show it: active = GI50 up to about 1.1 µM and inactive = higher.
Assays:
Assay in all cases: DTP human tumour cell line panel, 48 h
786-0 = test system: 786-0
CCRF-CEM = test system: CCRF-CEM
COLO 205 = test system: COLO 205
DMS-273 = test system: DMS-273
EKVX = test system: EKVX
HT-29 = test system: HT-29
KM12 = test system: KM12
M14 = test system: M14
NCI-H226 = test system: NCI-H226
OVCAR-4 = test system: OVCAR-4
OVCAR-8 = test system: OVCAR-8
RPMI-8226 = test system: RPMI-8226
RXF 393 = test system: RXF 393
SK-OV-3 = test system: SK-OV-3
UACC-62 = test system: UACC-62
UO-31 = test system: UO-31
MOLT-4 = test system: MOLT-4

Row | Compound | GI50 (786-0) | GI50 (CCRF-CEM) | GI50 (COLO 205) | GI50 (DMS-273) | GI50 (EKVX) | GI50 (HT-29) | GI50 (KM12) | GI50 (M14) | GI50 (NCI-H226) | GI50 (OVCAR-4) | GI50 (OVCAR-8) | GI50 (RPMI-8226) | GI50 (RXF 393) | GI50 (SK-OV-3) | GI50 (UACC-62) | GI50 (UO-31) | GI50 (MOLT-4)
1 | CCc1cccc(C)c1N1C(=O)C(=O)C(c2nc3ccccc3o2)/C(=N/NC(=S)NN)C1=O (stereo not given) | > 100 µM (inactive) | > 100 µM (inactive) | > 100 µM (inactive) | > 100 µM (inactive) | > 100 µM (inactive) | > 100 µM (inactive) | > 100 µM (inactive) | > 100 µM (inactive) | > 100 µM (inactive) | > 100 µM (inactive) | > 100 µM (inactive) | > 100 µM (inactive) | > 100 µM (inactive) | > 100 µM (inactive) | > 100 µM (inactive) | > 100 µM (inactive) | –
2 | CN(C)C(=O)NC(=S)N(C)C | > 100 µM (inactive) | > 100 µM (inactive) | – | > 100 µM (inactive) | > 100 µM (inactive) | > 100 µM (inactive) | > 100 µM (inactive) | > 100 µM (inactive) | 55.1 µM (inactive) | > 100 µM (inactive) | > 100 µM (inactive) | > 100 µM (inactive) | > 100 µM (inactive) | > 100 µM (inactive) | > 100 µM (inactive) | > 100 µM (inactive) | > 100 µM (inactive)
3 | CCOc1ccc2[nH]c3c(C)c4ccncc4c(C)c3c2c1 | 1.03 µM (active) | 0.649 µM (active) | 1.21 µM (inactive) | 0.394 µM (active) | 1.46 µM (inactive) | 0.71 µM (active) | 1 µM (active) | 1.55 µM (inactive) | 1.82 µM (inactive) | 1.41 µM (inactive) | 0.789 µM (active) | 1.36 µM (inactive) | 1.54 µM (inactive) | 3.91 µM (inactive) | – | 2.91 µM (inactive) | 0.426 µM (active)
4 | CC(C)(C)NC(=O)NC12CC3CC(CC(F)(C3)C1)C2 | > 100 µM (inactive) | > 100 µM (inactive) | > 100 µM (inactive) | > 100 µM (inactive) | > 100 µM (inactive) | > 100 µM (inactive) | > 100 µM (inactive) | > 100 µM (inactive) | – | – | > 100 µM (inactive) | > 100 µM (inactive) | > 100 µM (inactive) | > 100 µM (inactive) | > 100 µM (inactive) | > 100 µM (inactive) | > 100 µM (inactive)
5 | C[Si](C)(C)/C=C\CCO | > 100 µM (inactive) | > 100 µM (inactive) | > 100 µM (inactive) | > 100 µM (inactive) | > 100 µM (inactive) | > 100 µM (inactive) | > 100 µM (inactive) | > 100 µM (inactive) | – | – | > 100 µM (inactive) | > 100 µM (inactive) | > 100 µM (inactive) | > 100 µM (inactive) | > 100 µM (inactive) | > 100 µM (inactive) | > 100 µM (inactive)
6 | Nc1ncnc2c1ncn2CCOC(c1ccccc1)P(=O)(O)O (stereo not given) | > 100 µM (inactive) | > 100 µM (inactive) | > 100 µM (inactive) | > 100 µM (inactive) | > 100 µM (inactive) | > 100 µM (inactive) | > 100 µM (inactive) | – | > 100 µM (inactive) | – | > 100 µM (inactive) | – | > 100 µM (inactive) | > 100 µM (inactive) | > 100 µM (inactive) | > 100 µM (inactive) | > 100 µM (inactive)
7 | CCCC(=O)OCC(O)CO (stereo not given) | > 5000 µM (inactive) | 4500 µM (inactive) | > 5000 µM (inactive) | 4040 µM (inactive) | – | > 5000 µM (inactive) | > 5000 µM (inactive) | > 5000 µM (inactive) | > 5000 µM (inactive) | > 5000 µM (inactive) | 2900 µM (inactive) | 2990 µM (inactive) | 3090 µM (inactive) | 4970 µM (inactive) | 2170 µM (inactive) | 2860 µM (inactive) | > 5000 µM (inactive)
8 | Cc1nccc2c1cnc1ccnn12 | > 100 µM (inactive) | > 100 µM (inactive) | > 100 µM (inactive) | > 100 µM (inactive) | 67.1 µM (inactive) | > 100 µM (inactive) | > 100 µM (inactive) | > 100 µM (inactive) | > 100 µM (inactive) | > 100 µM (inactive) | > 100 µM (inactive) | > 100 µM (inactive) | > 100 µM (inactive) | > 100 µM (inactive) | – | > 100 µM (inactive) | > 100 µM (inactive)
9 | CNC(=S)NC1CCCCC1NC(=S)NC (stereo not given) | > 100 µM (inactive) | > 100 µM (inactive) | > 100 µM (inactive) | > 100 µM (inactive) | > 100 µM (inactive) | > 100 µM (inactive) | > 100 µM (inactive) | > 100 µM (inactive) | > 100 µM (inactive) | > 100 µM (inactive) | > 100 µM (inactive) | > 100 µM (inactive) | – | > 100 µM (inactive) | > 100 µM (inactive) | > 100 µM (inactive) | > 100 µM (inactive)

Source: ChEMBL document CHEMBL1201862, “PubChem BioAssay data set” (2004)
